One test deals with T1, AsPC-1 HiBiT-KRASG12D (Homo sapiens, UniProt P01116, G12D).
T1 construct: insert the HiBiT tag onto the N-terminus of one or more of the endogenous KRAS alleles; endogenous in cells; host or cells: AsPC-1 (ATCC CRL-1682), CRISPR-Cas9 knock-in clone, one tagged allele
The test is described as follows: HiBiT degradation assay (G12D), AsPC-1 HiBiT-KRASG12D cells. The format is cell-based. The settings on record: 24 hours treatment; for DC50: AsPC-1 HiBiT-KRASG12D cells, HiBiT luminescence; for Dmax: ASPC1, AsPC-1 HiBiT-KRASG12D cells, maximum degradation observed. The gist of the method: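 HiBiT-KRAS abundance was read as Nano-Glo HiBiT lytic luminescence (45 min, room temperature) after a PBS wash. Before that, a 4 h alamar blue fluorescence read, normalized to DMSO, monitored viability. Treatment lasted 24 hours at 37 °C, in triplicate, using AsPC-1 cells with endogenous N-terminally HiBiT-tagged KRAS G12D.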

In a further test the target is T2, SW1573 HiBiT-KRASG12C (Homo sapiens, UniProt P01116, G12C).
T2 construct: expressed in transfected cells
T2 sequence (P01116 1-188 isoform P01116-2 G12C): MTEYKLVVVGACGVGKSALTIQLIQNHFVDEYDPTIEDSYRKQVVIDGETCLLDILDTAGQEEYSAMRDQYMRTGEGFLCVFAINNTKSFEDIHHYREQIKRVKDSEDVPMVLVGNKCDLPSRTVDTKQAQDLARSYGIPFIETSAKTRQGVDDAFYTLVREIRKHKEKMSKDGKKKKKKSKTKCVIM
The test is described as follows: HiBiT degradation assay (G12C), SW1573 HiBiT-KRASG12C cells.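 As to SW1573 HiBiT-KRASG12C DC50 (nM): Letter grades: C is 1000 to 3000 nM and D is above 3000 nM.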 The settings on record: 24 hours treatment; for Dmax: maximum degradation observed. The class given is cell-based. The procedure, abridged:
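SW1573 cells expressing N-terminal HiBiT-KRASG12C (clone E6) treated 24 h at 37 °C with 10 μM to 508 pM compound in 0.5% DMSO, triplicate. HiBiT lytic luminescence normalized to DMSO, 4-parameter fit gives DC50 and Dmax; points with ≥50% alamar blue viability loss excluded.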
In general terms: HiBiT is a short tag that completes a luciferase, so light tracks the accessible tagged protein.

T1 sequence (P01116 1-188 isoform P01116-2 G12D): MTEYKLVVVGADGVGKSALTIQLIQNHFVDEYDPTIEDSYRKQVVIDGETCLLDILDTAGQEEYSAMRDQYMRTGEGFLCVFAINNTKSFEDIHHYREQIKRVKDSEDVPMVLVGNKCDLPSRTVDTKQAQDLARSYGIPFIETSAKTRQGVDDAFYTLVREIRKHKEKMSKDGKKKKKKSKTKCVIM

As for `CCc1cccc2cc(O)cc(-c3ncc4c(N5CC6CCC(C6)C5)nc(OCCN5CCC(COCC(=O)N[C@H](C(=O)N6C[C@H](O)C[C@H]6C(=O)N[C@@H](C)c6ccc(-c7scnc7C)cc6)C(C)(C)C)CC5)nc4c3F)c12` [Compound 19, (2S,4R)-1-[(2S)-2-[[2-[[1-[2-[4-(3-azabicyclo[3.2.1]octan-3-yl)-7-(8-ethyl-3-hydroxy-1-naphthyl)-8-fluoro-pyrido[4,3-d]pyrimidin-2-yl]oxyethyl]-4-piperidyl]methoxy]acetyl]amino]-3,3-dimethyl-butanoyl]-4-hydroxy-N-[(1S)-1-[4-(4-methylthiazol-5-yl)phenyl]ethyl]pyrrolidine-2-carboxamide], the DC50 – broadly, the concentration at which degradation of the target reaches its halfway point – on AsPC-1 HiBiT-KRASG12D was above 3000 nM; at SW1573 HiBiT-KRASG12C (HiBiT luminescence) it was 1000 to 3000 nM. For the same compound, the Dmax (commonly the largest share of the target that was removed) on SW1573 HiBiT-KRASG12C is 20 to 60%.

At AsPC-1 HiBiT-KRASG12D, `CCc1cccc2cc(O)cc(-c3ncc4c(N5CC6CCC(C5)N6)nc(OCCN5CCC(COc6cc([C@H](C(=O)N7C[C@H](O)C[C@H]7C(=O)N[C@@H](C)c7ccc(-c8scnc8C)cc7)C(C)C)on6)CC5)nc4c3F)c12` [Compound 20, (2S,4R)-1-[(2R)-2-[3-[[1-[2-[4-(3,8-diazabicyclo[3.2.1]octan-3-yl)-7-(8-ethyl-3-hydroxy-1-naphthyl)-8-fluoro-pyrido[4,3-d]pyrimidin-2-yl]oxyethyl]-4-piperidyl]methoxy]isoxazol-5-yl]-3-methyl-butanoyl]-4-hydroxy-N-[(1S)-1-[4-(4-methylthiazol-5-yl)phenyl]ethyl]pyrrolidine-2-carboxamide] registered a Dmax of 80 to 100% and a half-maximal degradation concentration (DC50) below 600 nM. The compound further yielded a 50% degradation concentration (DC50) at SW1573 HiBiT-KRASG12C (HiBiT luminescence) above 3000 nM.

Take `CCc1cccc2cc(O)cc(-c3ncc4c(N5CC6CCC(C5)N6)nc(OCCN5CCC(COCC(=O)N[C@H](C(=O)N6C[C@H](O)C[C@H]6C(=O)N[C@@H](C)c6ccc(-c7scnc7C)cc6)C(C)(C)C)CC5)nc4c3F)c12` [Compound 21, (2S,4R)-1-[(2S)-2-[[2-[[1-[2-[4-(3,8-diazabicyclo[3.2.1]octan-3-yl)-7-(8-ethyl-3-hydroxy-1-naphthyl)-8-fluoro-pyrido[4,3-d]pyrimidin-2-yl]oxyethyl]-4-piperidyl]methoxy]acetyl]amino]-3,3-dimethyl-butanoyl]-4-hydroxy-N-[(1S)-1-[4-(4-methylthiazol-5-yl)phenyl]ethyl]pyrrolidine-2-carboxamide]: at AsPC-1 HiBiT-KRASG12D, the maximal degradation (Dmax) fell in the range of 80 to 100% and the half-maximal degradation concentration (DC50) is below 600 nM. In addition, the DC50 at SW1573 HiBiT-KRASG12C (HiBiT luminescence) was above 3000 nM.

On AsPC-1 HiBiT-KRASG12D, `Cc1ncsc1-c1ccc([C@H](C)NC(=O)[C@@H]2C[C@@H](O)CN2C(=O)[C@@H](c2cc(OCC3CCN(CCOc4nc(N5CC6CCC(C5)N6)c5cnc(-c6cc(O)cc7ccccc67)c(F)c5n4)CC3)no2)C(C)C)cc1` [Compound 22, (2S,4R)-1-[(2R)-2-[3-[[1-[2-[4-(3,8-diazabicyclo[3.2.1]octan-3-yl)-8-fluoro-7-(3-hydroxy-1-naphthyl)pyrido[4,3-d]pyrimidin-2-yl]oxyethyl]-4-piperidyl]methoxy]isoxazol-5-yl]-3-methyl-butanoyl]-4-hydroxy-N-[(1S)-1-[4-(4-methylthiazol-5-yl)phenyl]ethyl]pyrrolidine-2-carboxamide] returned a Dmax of 20 to 60% and a DC50 of 600 to 1000 nM. The “SW1573 HiBiT-KRASG12C DC50 (nM)” value on SW1573 HiBiT-KRASG12C (HiBiT luminescence) is recorded as “C/D*”.

Compound `Cc1ncsc1-c1ccc([C@H](C)NC(=O)[C@@H]2C[C@@H](O)CN2C(=O)[C@@H](NC(=O)COCC2CCN(CCOc3nc(N4CC5CCC(C4)N5)c4cnc(-c5cc(O)cc6ccccc56)c(F)c4n3)CC2)C(C)(C)C)cc1` [Compound 23, (2S,4R)-1-[(2S)-2-[[2-[[1-[2-[4-(3,8-diazabicyclo[3.2.1]octan-3-yl)-8-fluoro-7-(3-hydroxy-1-naphthyl)pyrido[4,3-d]pyrimidin-2-yl]oxyethyl]-4-piperidyl]methoxy]acetyl]amino]-3,3-dimethyl-butanoyl]-4-hydroxy-N-[(1S)-1-[4-(4-methylthiazol-5-yl)phenyl]ethyl]pyrrolidine-2-carboxamide] came in with a Dmax on AsPC-1 HiBiT-KRASG12D of 20 to 60%. Also, the figures for the 50% degradation concentration (DC50) on AsPC-1 HiBiT-KRASG12D and on SW1573 HiBiT-KRASG12C (HiBiT luminescence) were 1000 to 3000 nM and above 3000 nM, respectively.

On to `CCc1cccc2cccc(-c3ncc4c(N5CC6CCC(C5)N6)nc(OC[C@]56CCCN5[C@@H](COC(=O)N5CCN(c7cc([C@H](C(=O)N8C[C@H](O)C[C@H]8C(=O)N[C@@H](C)c8ccc(-c9scnc9C)cc8)C(C)C)on7)CC5)CC6)nc4c3F)c12` [Compound 34, [(3R,7aR)-7a-{[(4-{3,8-diazabicyclo[3.2.1]octan-3-yl}-7-(8-ethylnaphthalen-1-yl)-8-fluoropyrido[4,3-d]pyrimidin-2-yl)oxy]methyl}-hexahydro-1H-pyrrolizin-3-yl]methyl 4-{5-[(2R)-1-[(2S,4R)-4-hydroxy-2-{[(1S)-1-[4-(4-methyl-1,3-thiazol-5-yl)phenyl]ethyl]carbamoyl}pyrrolidin-1-yl]-3-methyl-1-oxobutan-2-yl]-1,2-oxazol-3-yl}piperazine-1-carboxylate], for which the Dmax on AsPC-1 HiBiT-KRASG12D lay within 80 to 100%. Besides, the half-maximal degradation concentration (DC50) was below 600 nM at AsPC-1 HiBiT-KRASG12D and above 3000 nM on SW1573 HiBiT-KRASG12C (HiBiT luminescence).

In the case of `CCc1cccc2cccc(-c3ncc4c(N5CC6CCC(C5)N6)nc(OC[C@@]56CCCN5[C@H](COC(=O)N5CCN(c7cc([C@H](C(=O)N8C[C@H](O)C[C@H]8C(=O)N[C@@H](C)c8ccc(-c9scnc9C)cc8)C(C)C)on7)CC5)CC6)nc4c3F)c12` [Compound 35, [(3S,7aS)-7a-{[(4-{3,8-diazabicyclo[3.2.1]octan-3-yl}-7-(8-ethylnaphthalen-1-yl)-8-fluoropyrido[4,3-d]pyrimidin-2-yl)oxy]methyl}-hexahydro-1H-pyrrolizin-3-yl]methyl 4-{5-[(2R)-1-[(2S,4R)-4-hydroxy-2-{[(1S)-1-[4-(4-methyl-1,3-thiazol-5-yl)phenyl]ethyl]carbamoyl}pyrrolidin-1-yl]-3-methyl-1-oxobutan-2-yl]-1,2-oxazol-3-yl}piperazine-1-carboxylate], on AsPC-1 HiBiT-KRASG12D, the Dmax lay within 80 to 100%. Further, the figures for the half-maximal degradation concentration (DC50) at AsPC-1 HiBiT-KRASG12D and at SW1573 HiBiT-KRASG12C (HiBiT luminescence) were below 600 nM and above 3000 nM, respectively.

With `C#Cc1cccc2cc(O)cc(-c3ncc4c(N5CC6CCC(C5)N6)nc(OCCN5CCC6(CC5)CN(c5cc([C@H](C(=O)N7C[C@H](O)C[C@H]7C(=O)N[C@@H](C)c7ccc(-c8scnc8C)cc7)C(C)C)on5)C6)nc4c3F)c12` [Compound 36, (2S,4R)-1-[(2R)-2-[3-(7-{2-[(4-{3,8-diazabicyclo[3.2.1]octan-3-yl}-7-(8-ethynyl-3-hydroxynaphthalen-1-yl)-8-fluoropyrido[4,3-d]pyrimidin-2-yl)oxy]ethyl}-2,7-diazaspiro[3.5]nonan-2-yl)-1,2-oxazol-5-yl]-3-methylbutanoyl]-4-hydroxy-N-[(1S)-1-[4-(4-methyl-1,3-thiazol-5-yl)phenyl]ethyl]pyrrolidine-2-carboxamide], on AsPC-1 HiBiT-KRASG12D, the Dmax was in the range of 80 to 100% and the DC50 was below 600 nM. In addition, on SW1573 HiBiT-KRASG12C (HiBiT luminescence), the 50% degradation concentration (DC50) is above 3000 nM.

At AsPC-1 HiBiT-KRASG12D, `Cc1ncsc1-c1ccc([C@H](C)NC(=O)[C@@H]2C[C@@H](O)CN2C(=O)[C@@H](c2cc(N3CCN(C(=O)OC[C@H]4CC[C@@]5(COc6nc(N7CC8CCC(C7)N8)c7cnc(-c8cc(O)cc9ccccc89)c(F)c7n6)CCCN45)CC3)no2)C(C)C)cc1` [Compound 37, [(3R,7aR)-7a-{[(4-{3,8-diazabicyclo[3.2.1]octan-3-yl}-8-fluoro-7-(3-hydroxynaphthalen-1-yl)pyrido[4,3-d]pyrimidin-2-yl)oxy]methyl}-hexahydro-1H-pyrrolizin-3-yl]methyl 4-{5-[(2R)-1-[(2S,4R)-4-hydroxy-2-{[(1S)-1-[4-(4-methyl-1,3-thiazol-5-yl)phenyl]ethyl]carbamoyl}pyrrolidin-1-yl]-3-methyl-1-oxobutan-2-yl]-1,2-oxazol-3-yl}piperazine-1-carboxylate] showed a Dmax of 80 to 100% and a DC50 below 600 nM. This compound yielded a DC50 at SW1573 HiBiT-KRASG12C (HiBiT luminescence) above 3000 nM.

With `CCc1cccc2cc(O)cc(-c3ncc4c(N5CC6CCC(C5)N6)nc(OC[C@]56CCCN5[C@@H](COc5cc(C(C(=O)N7C[C@H](O)C[C@H]7C(=O)N[C@@H](C)c7ccc(-c8scnc8C)cc7)C(C)C)on5)CC6)nc4c3F)c12` (stereo partly drawn) [Compound 38, (2S,4R)-1-[2-(3-{[(3R,7aR)-7a-{[(4-{3,8-diazabicyclo[3.2.1]octan-3-yl}-7-(8-ethyl-3-hydroxynaphthalen-1-yl)-8-fluoropyrido[4,3-d]pyrimidin-2-yl)oxy]methyl}-hexahydro-1H-pyrrolizin-3-yl]methoxy}-1,2-oxazol-5-yl)-3-methylbutanoyl]-4-hydroxy-N-[(1S)-1-[4-(4-methyl-1,3-thiazol-5-yl)phenyl]ethyl]pyrrolidine-2-carboxamide], the maximal degradation (Dmax) at AsPC-1 HiBiT-KRASG12D lay in the range of 80 to 100%; on SW1573 HiBiT-KRASG12C, 20 to 60%. The 50% degradation concentration (DC50) on AsPC-1 HiBiT-KRASG12D was below 600 nM; at SW1573 HiBiT-KRASG12C (HiBiT luminescence), 1000 to 3000 nM.

In the case of `C#Cc1c(F)ccc2cc(O)cc(-c3ncc4c(N5CC6CCC(C5)N6)nc(OCCN5CCC(COc6cc([C@H](C(=O)N7C[C@H](O)C[C@H]7C(=O)N[C@@H](C)c7ccc(-c8scnc8C)cc7)C(C)C)on6)CC5)nc4c3F)c12` [Compound 39, (2S,4R)-1-[(2R)-2-{3-[(1-{2-[(4-{3,8-diazabicyclo[3.2.1]octan-3-yl}-7-(8-ethynyl-7-fluoro-3-hydroxynaphthalen-1-yl)-8-fluoropyrido[4,3-d]pyrimidin-2-yl)oxy]ethyl}piperidin-4-yl)methoxy]-1,2-oxazol-5-yl}-3-methylbutanoyl]-4-hydroxy-N-[(1S)-1-[4-(4-methyl-1,3-thiazol-5-yl)phenyl]ethyl]pyrrolidine-2-carboxamide], the Dmax at AsPC-1 HiBiT-KRASG12D was in the range of 80 to 100%; on SW1573 HiBiT-KRASG12C it was 20 to 60%. Besides, the values for the DC50 at AsPC-1 HiBiT-KRASG12D and at SW1573 HiBiT-KRASG12C (HiBiT luminescence) were below 600 nM and 1000 to 3000 nM, respectively.
